Here are results for eight molecules from ChEMBL document CHEMBL1201862, “PubChem BioAssay data set” (2004).

Test systems include SF-295; MDA-N; OVCAR-5; SK-OV-3; M14; HOP-92; NCI-H522; U-251; NCI/ADR-RES; SF-268; Hs-578T; T47D; SW-620; HCC 2998; NCI-H23; A549; CCRF-CEM; OVCAR-8; HL-60; MCF7.
Holding throughout (test): NCI anticancer screen, dose series, 48 h

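Cultured in 96-well plates, cells were exposed to test compound for 48 hours across five concentrations. The concentration for 50% growth inhibition is given as GI50.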 Active and inactive are the calls of the source. Rule as the data show it: active = GI50 up to about 1.1 µM and inactive = higher.

In the case of `CN(C)CCCN1c2ccc([N+](=O)[O-])cc2CCc2cccc([N+](=O)[O-])c21`, the GI50 was 15 µM (inactive) in the experiment on SF-295; 14.8 µM (inactive) with MDA-N; 13 µM (inactive) in the experiment with OVCAR-5; 14.8 µM (inactive) in the experiment with SK-OV-3; 13.7 µM (inactive) with M14; 11 µM (inactive) with HOP-92. The GI50 in the experiment on NCI-H522 was 17.7 µM (inactive); with U-251, 15.3 µM (inactive); with NCI/ADR-RES, 13.3 µM (inactive); in the experiment on SF-268, 15.5 µM (inactive); in the experiment with Hs-578T, 14.4 µM (inactive); with T47D, 17.4 µM (inactive). Besides, the GI50 with SW-620 was 16.1 µM (inactive); in the experiment on HCC 2998, 13.5 µM (inactive); with NCI-H23 it was 15.9 µM (inactive); with A549, 16 µM (inactive); with CCRF-CEM, 16.7 µM (inactive); in the experiment with OVCAR-8, 17 µM (inactive). Also, in the experiment with HL-60, the GI50 is 18.1 µM (inactive).
In the case of `CC[C@H](NC1=C(Cl)C(=O)c2c(O)ccc(O)c2C1=O)C(=O)OC`, the GI50 in the experiment on SF-295 is > 10 µM (inactive); in the experiment on MDA-N, 6.55 µM (inactive); in the experiment on OVCAR-5 it was > 10 µM (inactive); in the experiment on SK-OV-3, > 10 µM (inactive); in the experiment with M14, 3.72 µM (inactive); in the experiment on HOP-92 it was > 10 µM (inactive). Further, the GI50 was 3.53 µM (inactive) in the experiment on NCI-H522; 3.94 µM (inactive) in the experiment on MCF7; 6.12 µM (inactive) in the experiment with U-251; 7.28 µM (inactive) with NCI/ADR-RES; 4.13 µM (inactive) in the experiment on SF-268; > 10 µM (inactive) with Hs-578T. For the same molecule, the GI50 was 5.79 µM (inactive) with SW-620; > 10 µM (inactive) with NCI-H23; > 10 µM (inactive) in the experiment with A549; 3.5 µM (inactive) in the experiment with CCRF-CEM; 4.63 µM (inactive) in the experiment with OVCAR-8; 3.79 µM (inactive) in the experiment on HL-60.
As for `Oc1ccc(Cl)cc1/N=N\c1c(O)ccc2ccccc12`, the GI50 in the experiment with SF-295, with MDA-N, in the experiment on OVCAR-5, in the experiment on SK-OV-3, in the experiment with M14 and in the experiment with HOP-92 was > 100 µM (inactive) throughout. Further, the GI50 in the experiment with NCI-H522 is 59.4 µM (inactive); in the experiment with U-251, > 100 µM (inactive); in the experiment on NCI/ADR-RES, > 100 µM (inactive); in the experiment on SF-268, > 100 µM (inactive); with Hs-578T, > 100 µM (inactive); with SW-620, > 100 µM (inactive). Also, the GI50 with NCI-H23 is > 100 µM (inactive); in the experiment with A549, > 100 µM (inactive); in the experiment on CCRF-CEM, > 100 µM (inactive); with OVCAR-8, > 100 µM (inactive); in the experiment on HL-60 it was 78.9 µM (inactive).
Take `O=C1CCc2cc(Br)ccc2O1`: the GI50 with SF-295 is 34 µM (inactive); in the experiment with MDA-N it was > 100 µM (inactive); in the experiment with OVCAR-5 it was > 100 µM (inactive); in the experiment on M14, 57 µM (inactive); with HOP-92, 24.9 µM (inactive); in the experiment with NCI-H522, 32.7 µM (inactive). In addition, the GI50 with MCF7 is 12.6 µM (inactive); in the experiment on U-251 it was 30 µM (inactive); in the experiment with SF-268, 23.6 µM (inactive); with Hs-578T, 22.4 µM (inactive); with T47D, 73.3 µM (inactive); with SW-620, > 100 µM (inactive). Moreover, the GI50 was > 100 µM (inactive) in the experiment on HCC 2998; 44.7 µM (inactive) in the experiment with NCI-H23; > 100 µM (inactive) in the experiment with A549; > 100 µM (inactive) in the experiment on CCRF-CEM; > 100 µM (inactive) in the experiment on OVCAR-8; > 100 µM (inactive) with HL-60.
On to `OC(/C(=N/c1ccccc1)c1ccccc1)c1ccccc1` (centres undefined), for which the GI50 with SF-295 is 9.71 µM (inactive); in the experiment on OVCAR-5, 23.1 µM (inactive); with SK-OV-3 it was 22.2 µM (inactive); in the experiment on M14, 4.8 µM (inactive); with HOP-92, 4.05 µM (inactive); in the experiment with NCI-H522, 4.35 µM (inactive). For the same molecule, the GI50 was 5.62 µM (inactive) in the experiment on MCF7; 4.1 µM (inactive) in the experiment with U-251; 23.5 µM (inactive) with NCI/ADR-RES; 4.99 µM (inactive) in the experiment with SF-268; 2.29 µM (inactive) in the experiment on Hs-578T; 5.62 µM (inactive) in the experiment on T47D. For the same molecule, the GI50 is 10.5 µM (inactive) in the experiment on SW-620; 4.4 µM (inactive) in the experiment with NCI-H23; 11.3 µM (inactive) with A549; 3.32 µM (inactive) in the experiment on CCRF-CEM; 2.94 µM (inactive) in the experiment with HL-60.
As to `c1ccc(C(/C(=N/c2ccc(Cc3ccc(/N=C(\C(c4ccccc4)c4ccccc4)N4CC4)cc3)cc2)N2CC2)c2ccccc2)cc1`, the GI50 with SF-295 was 9.31 µM (inactive); in the experiment on OVCAR-5, 11.5 µM (inactive); with SK-OV-3, < 0.01 µM (active); in the experiment with M14, 14.3 µM (inactive); in the experiment on NCI-H522 it was 3.14 µM (inactive); with MCF7, 3.1 µM (inactive). Further, the GI50 in the experiment on U-251 is 12.7 µM (inactive); in the experiment with NCI/ADR-RES it was 9.25 µM (inactive); with SF-268, 4.86 µM (inactive); in the experiment on Hs-578T, 10.6 µM (inactive); in the experiment on T47D, 2.61 µM (inactive); in the experiment with SW-620, 6.3 µM (inactive). In addition, the GI50 was 10.1 µM (inactive) with HCC 2998; 10.5 µM (inactive) in the experiment on NCI-H23; 7.36 µM (inactive) in the experiment on A549; 3.18 µM (inactive) in the experiment with CCRF-CEM; 10.7 µM (inactive) with OVCAR-8; 4.23 µM (inactive) with HL-60.
For the molecule `COC(=O)Cc1c(C2=Nc3ccccc3C2(O)CC(=O)OC)[nH]c2ccccc12` (centres undefined), the GI50 in the experiment on SF-295 is 45.8 µM (inactive); with MDA-N it was > 100 µM (inactive); in the experiment with OVCAR-5, 54.6 µM (inactive); in the experiment on SK-OV-3, > 100 µM (inactive); in the experiment with M14, 78.2 µM (inactive); in the experiment on HOP-92, 26.5 µM (inactive). The GI50 in the experiment on NCI-H522 was 18.9 µM (inactive); with U-251, 34.5 µM (inactive); in the experiment on NCI/ADR-RES it was > 100 µM (inactive); with SF-268, > 100 µM (inactive); in the experiment on Hs-578T it was 24.2 µM (inactive); in the experiment on T47D, 15.5 µM (inactive). In addition, the GI50 is 47.3 µM (inactive) in the experiment with SW-620; > 100 µM (inactive) in the experiment on NCI-H23; 94 µM (inactive) with A549; 20.1 µM (inactive) in the experiment with CCRF-CEM; 49.3 µM (inactive) with OVCAR-8; 22 µM (inactive) in the experiment on HL-60.
On to `N=C(N)n1nc2c(c1O)CCC2`, for which the GI50 in the experiment with SF-295, in the experiment on MDA-N, in the experiment with OVCAR-5, in the experiment with SK-OV-3, with M14 and in the experiment on HOP-92 was > 100 µM (inactive) in each case. The GI50 with NCI-H522, with MCF7, with U-251, with NCI/ADR-RES, in the experiment with SF-268 and with Hs-578T was > 100 µM (inactive) throughout. For the same molecule, the GI50 in the experiment with SW-620, in the experiment on HCC 2998, in the experiment with NCI-H23, in the experiment with A549, in the experiment with CCRF-CEM and with OVCAR-8 was > 100 µM (inactive) in each case. Also, in the experiment on HL-60, the GI50 was > 100 µM (inactive).
